For orientation: IC50 means the concentration that gives 50% inhibition.

Experimental findings from patent US11767320B2, “Bicyclic dione compounds as inhibitors of KRAS” (INCYTE CORPORATION, priority 2020, dated 2023) are described below.

Molecules are shown by their SMILES.

In assay [1] the target is KRAS G12C (Homo sapiens, UniProt P01116, G12C). The assay can be described thus: GDP-GTP exchange assay (fluorescence based guanine nucleotide exchange, bodipy-GDP for GppNHp, SOS1). The class given is biochemical. As to conditions: bodipy-loaded KRAS G12C, 2 hours pre-incubation with inhibitor, read-out: G12C_exchange (KRAS_G12C exchange assay IC50). In a few lines: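 Bodipy-GDP-loaded KRAS G12C (5-25 nM final) pre-incubated 2 h with inhibitor in Hepes pH 7.5, MgCl2 buffer, then exchange started with 500 uM GppNHp and 150 nM SOS1 for 2 h at ambient temperature. G12D and G12V used 2.5 nM protein, with 4 h and 3 h exchange respectively. Fluorescence read at 485/520 nm; IC50 from four-parameter logistic fit.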

The subject of assay [2] is MIA PaCa-2 cells (KRAS G12C). Nature of the assay: Whole blood pERK1/2 HTRF assay. The class given is cell-based. As to conditions: Homo sapiens, compound in whole blood, 4 hours, phospho-ERK 1/2 HTRF, read-out: G12C_WB_pERK assay IC50. The method, then:
MIA PaCa-2 cells (KRAS G12C; ATCC® CRL-1420) and HPAF-II (KRAS G12D; ATCC® CRL-1997) are maintained in RPMI 1640 with 10% FBS (Gibco/Life Technologies). The cells are seeded into 96 well tissue culture plates (Corning #3596) at 25000 cells per well in 100 uL media and cultured for 2 days at 37° C. 5% CO2 so that they are approximately 80% confluent at the start of the assay. Whole Blood are added to the 1 uL dots of compounds (prepared in DMSO) in 96 well plates and mixed gently by pipetting up and down so that the concentration of the compound in blood is 1× of desired concentration. The media is aspirated from the cells and 50 uL per well of whole blood with G12C or G12D compound is added and incubated for 4 or 2 hours respectively at 37° C. 5% CO2. After dumping the blood, the plates are gently washed twice by adding PBS to the side of the wells and dumping the PBS from the plate onto a paper towel, tapping the plate to drain well. 50 ul/well of 1× lysis buffer #1 (Cisbio) with blocking reagent (1:25) (Cisbio) is then added and incubated at room temperature for 30 minutes with shaking (250 rpm). Following lysis, 16 uL of lysate is transferred into 384-well Greiner small volume white plate using an Assist Plus (Integra Biosciences, NH). 4 uL of 1:1 mixture of anti Phospho-ERK 1/2 d2 and anti Phospho-ERK 1/2 Cryptate (Cisbio) is added to the wells using the Assist Plus and incubated at room temperature overnight in the dark. Plates are read on the Pherastar plate reader at 665 nm and 620 nm wavelengths. IC50 determination is performed by fitting the curve of inhibitor percent inhibition versus the log of the inhibitor concentration using the GraphPad Prism 7 software.

In assay [3] the test system is MIA PaCa-2 (KRAS G12C) cells. Nature of the assay: Cellular pERK HTRF assay. In kind it is cell-based. The conditions noted are these: Homo sapiens; MIA PaCa-2 cells, 4 hours, phospho-ERK 1/2 HTRF; read-out: G12C_pERK (KRAS_G12C pERK assay IC50). An outline of the steps:
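MIA PaCa-2 cells in RPMI 1640/10% FBS, plated overnight, then exposed to compound for 4 h at 37 °C (G12D compounds 2 h). Cells lysed and phospho-ERK1/2 detected by HTRF (665/620 nm). IC50 fitted from percent inhibition versus log inhibitor concentration.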
In general terms: In TR-FRET formats the signal depends on donor and acceptor labels being close together.

Sequence of KRAS G12C (P01116 1-188 isoform P01116-2 G12C): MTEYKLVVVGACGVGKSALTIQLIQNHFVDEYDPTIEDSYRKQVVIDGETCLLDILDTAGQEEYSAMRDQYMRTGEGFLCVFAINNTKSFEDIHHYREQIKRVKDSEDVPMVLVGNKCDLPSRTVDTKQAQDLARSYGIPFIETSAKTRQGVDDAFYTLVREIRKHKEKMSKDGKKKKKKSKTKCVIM

`C=C(F)C(=O)N1CC(F)(Cn2c(=O)c(=O)n(-c3c(C(C)C)ccnc3C(C)C)c3nc(-c4c(O)cccc4Cl)c(Cl)cc32)C1` [Example 64, 7-chloro-6-(2-chloro-6-hydroxyphenyl)-4-(2,4-diisopropylpyridin-3-yl)-1-((3-fluoro-1-(2-fluoroacryloyl)azetidin-3-yl)methyl)-1,4-dihydropyrido[2,3-b]pyrazine-2,3-dione]: the IC50 in assay [1] is no more than 100 nM; in assay [2], 100 to 1000 nM; in assay [3] it was no more than 100 nM.
